Assay results: US20250017888A1, “COMPOUNDS FOR TREATING DISEASES ASSOCIATED WITH HYALURONAN OVERPRODUCTION” (THE ROYAL VETERINARY COLLEGE, priority 2021, published 2025)
Where two headings read alike, the source gives them in different places.

What was measured:
Assay type in all cases: cell-based
[1] = system: hyaluronan export from chondrosarcoma cells; experiment: Inhibition of hyaluronan export / production in chondrosarcoma cells; conditions: for inhibition of hyaluronan export: culture supernatant after 2 days, comparison with parent compound, particularly below 3 μM
Protocol: (§1) The hyaluronan synthase activity (Prehm, P. and Schumacher, U., Biochem. Pharmacol. 2004, 68, 1401-1410), the cytotoxicity of the drugs (O'Brien, J. et al., Eur. J. Biochem. 2000, 267, 5421-5426), proteoglycan synthesis rate, hyaluronan (Prehm, P. J. Rheumatol., 2005, 32, 690-696) and proteoglycan (Bjornsson, S. Anal. Biochem. 1993, 210, 282-291) were determined as described. The effect of the prenylflavonoids on the MRP5 export rate was measured with fluorescein diacetate as described (Schulz, T., Schumacher, U., and Prehm, P., J Biol. Chem., 2007, 282, 20999-21004). The determination of the IC50 values on the phosphodiesterase 5 was performed according to the instructions of BPS Bioscience. The culture of bovine chondrocytes in alginate beads and of explants of bovine cartilage was described previously (Deiters, B. and Prehm, P. Arthritis Res. Ther., 2008, 10, R8; Prehm, P. J. Rheumatol. 2005, 32, 690-696). Osteoarthritic reactions were induced in chondrocytes growing in alginate beads by incubation with medium containing 10 ng/ml of II-17 for 6 days, and in cartilage explants with 10 ng/ml of II-17 and 5 ng/ml of II-1α. The supernatants were withdrawn and stored at −20° C. for later analysis. The explants were weighed and extracted with 1 ml of 4 M guanidinium-HCl for 72 hours at 4° C. The proteoglycan concentrations were determined in the extracts.
Chondrosarcoma cells were plated on a 96 well microtiter plate and in the presence of increasing flavonoid concentrations. After 2 days the concentration of hyaluronan was determined in the culture supernatant.

chondrosarcoma cells [2] = experiment: Uptake of flavonoids into chondrosarcoma cells by intracellular fluorescence
Protocol: Confluent monolayers of chondrosarcoma cells on 96 well microtiter plates were incubated with 100 μM solutions of flavonoids in serum-free Quantum medium. Changes in fluorescence were monitored from the bottom of the wells at excitation and emission wavelengths of 340 nm and 450 nm for xanthohumol and at 440 nm and 530 nm for quercetin, respectively.
Flavonoids are weakly fluorescent in aqueous buffer, but greatly enhance the fluorescence in the presence of proteins (Sengupta, B. and Sengupta, P. K., Biochem. Biophys. Res. Commun., 2002, 299, 400-403). This property was used to follow the uptake of quercetin and xanthohumol into chondrosarcoma cells.

[3] = system: chondrosarcoma cells (SW1353); experiment: Alamar blue staining of chondrosarcoma; conditions: Homo sapiens
Protocol: as §1
Chondrosarcoma cells (SW1353 from the American Type Culture Collection) were grown in Dulbecco's medium supplemented with streptomycin/penicillin (100 units of each/ml), 10% foetal calf serum or in serum free Quantum medium supplemented with streptomycin/penicillin (100 units of each/ml), kanamycin (100 units/ml).

[4] = Alamar blue toxicity assay (FIG. 1); conditions: below concentrations of 100 μM
Protocol: as §1
The toxicity was determined by the Alamar blue assay.

chondrosarcoma cells [5] = experiment: Inhibition of chondrosarcoma cell growth (Coulter counter); conditions: cell numbers after 2 days
Protocol: Chondrosarcoma cells were plated on a 24 well microtiter plate and in the presence of increasing flavonoid concentrations. After 2 days the cells were trypsinized and the cell numbers were determined in a Coulter counter.

[6] = system: bovine cartilage explants; experiment: Proteoglycan loss from interleukin activated bovine cartilage explants; conditions: interleukin stimulated, 5 days
Protocol: Cartilage explants were weighed (average wet weight: 20 mg) incubated in the absence and presence of IL-1 (2 ng/ml) and the inhibitors at various concentrations for 5 days. The tissues were extracted with 1.5 ml of a solution of 4 M guanidinium hydrochloride, 0.1 M ε-aminohexanoid acid, 5 mM benzamidine, 10 mM N-ethylmaleinimide, 0.5 mM phenylmethylsulfonyl fluoride for 3 days at 4° C. The solution was centrifuged for 5 min at 10.000 g and the proteoglycans were determined in the supernatant by the alcian blue method as described (Bjornsson, S., Anal. Biochem., 1993, 210, 282-291).
Bovine cartilage explants were incubated in the absence and presence of interleukin for stimulation of osteoarthritic reactions and the indicated concentrations of the xanthohumol-betaine (FIG. 6A), xanthohumol-prothiazole (FIG. 6B), quercetin-prothiazole (FIG. 6C), quercetin (FIG. 6D) and xanthohumol (FIG. 6E) for 5 days. The cartilage explants were weighed and the proteoglycan concentrations were determined in the cartilage explants (solid bars) and culture supernatants (open bars).

fibroblasts = experiment: Alamar blue staining of fibroblasts; conditions: Fibroblast
Protocol: as §1

uptake into chondrosarcoma cells (intracellular fluorescence) (chondrosarcoma cells [2]; concentration dependence, FIG. 2A) | SMILES | IC50 [1] [µM] | IC50 [3] [µM] | toxicity in Alamar blue assay [4] | inhibition of chondrosarcoma cell growth (chondrosarcoma cells [5]) | inhibition of hyaluronan export [1] | uptake into chondrosarcoma cells (intracellular fluorescence) (chondrosarcoma cells [2]) | inhibition of proteoglycan loss (protective effect) [6] | IC50 (fibroblasts) [µM]
did not accumulate inside the cells | O=c1c(O)c(-c2ccc(O)c(O)c2)oc2cc(O)cc(O)c12 [Quercetin, reference compound] | 16 | 70 | not toxic |  |  |  |  | 
 | CC(=O)S/C=C\N(C=O)CC(=O)Oc1ccc(-c2oc3cc(O)cc(O)c3c(=O)c2O)cc1O [Quercetin-prothiazole, (Z)-2-hydroxy-4-(3,5,7-trihydroxy-4-oxo-4H-chromen-2-yl)phenyl 2-(N-(2-(acetylthio)vinyl)formamido)acetate] | 8 | 61 | not toxic | more effective at submicromolar concentrations | more effective than their parent compound | taken up in a concentration dependent manner | similarly effective | 66
 | COc1cc(O)c(CC=C(C)C)c(O)c1C(=O)/C=C/c1ccc(OC(=O)CN(C=O)/C=C\SC(C)=O)cc1 [Xanthohumol-prothiazole, 4-((E)-3-(2,4-dihydroxy-6-methoxy-3-(3-methylbut-2-en-1-yl)phenyl)-3-oxoprop-1-en-1-yl)phenyl 2-(N-((Z)-2-(acetylthio)vinyl)formamido)acetate] | 20 | 69 | not toxic | more effective at submicromolar concentrations | more effective than their parent compound | taken up in a concentration dependent manner | similarly effective | 74
